Laboratory results reported in patent US10993983B2, “Cyclic peptide epitopes and small-molecule mimics for inducing autophagy” (TRUSTEES OF TUFTS COLLEGE, priority 2016, dated 2021).
Values joined by “and” are separate entries in the source; they are usually repeats but may differ in a detail not shown here. Identical values can stand only once. Marks after values point to notes of the source that are not given here.

What was measured:
Type in all cases: cell-based
p62 = p62 degradation assay (p62/actin immunoblot); parameters: key: −: activity not reported; 0: decreased vs. WT; +: similar to WT; ++: modest increase vs. WT; +++: significant increase vs. WT; conditions: for Activity (μM) 10, p62/actin assay activity: 10 μM; for Activity (μM) 20, p62/actin assay activity: 20 μM; for Activity (μM) 30, p62/actin assay activity: 30 μM; for Activity (μM) 50, p62/actin assay activity: 50 μM; for Activity (μM) 100, p62/actin assay activity: 100 μM; for Activity (μM) 10, starred cell, p62/actin assay activity: Table 8, 10 μM marked * (footnote: data taken at 20 instead of 30 μM)
LC3 = LC3 marker assay (LC3-I to LC3-II conversion immunoblot); parameters: key: −: activity not reported; 0: decreased vs. WT; +: similar to WT; ++: modest increase vs. WT; +++: significant increase vs. WT; conditions: for Activity (μM) 10, LC3 assay activity: 10 μM; for Activity (μM) 20, LC3 assay activity: 20 μM; for Activity (μM) 30, LC3 assay activity: 30 μM; for Activity (μM) 50, LC3 assay activity: 50 μM; for Activity (μM) 100, LC3 assay activity: 100 μM; for Activity (μM) 10, starred cell, LC3 assay activity: Table 8, 10 μM marked * (footnote: data taken at 20 instead of 30 μM)
HeLa cells = experiment: Autophagy induction judged by p62 and LC3 immunoblots together; parameters: key to Activity compared to wild-type WT / Activity (μM) 10, single symbol / Activity (μM) 30, single symbol / Activity (μM) 50, single symbol / Activity (μM) 100, single symbol: −: activity not reported; 0: decreased vs. WT; +: similar to WT; ++: modest increase vs. WT; +++: significant increase vs. WT; conditions: for Activity (μM) 10, single symbol: 10 μM; for Activity (μM) 30, single symbol: 30 μM; for Activity (μM) 50, single symbol: 50 μM; for Activity (μM) 100, single symbol: 100 μM
Description: This 10-mer sequence was substituted with various thiol-containing amino acids at various positions, and then cross-linked with various linkers as described above (FIG. 5, a and FIG. 6).
Cells were treated with peptide in OPTI-MEM (Thermo Scientific) acidified with 0.15% (v/v) 6N HCl for 3 hour. Cells were rinsed with Dulbecco's phosphate buffered saline (PBS) and lysed in lysis buffer (20 mM HEPES, 150 mM NaCl, 1 mM EDTA, 1% Triton X-100, protease inhibitor cocktail (Roche) on ice for 1 hour. Cell lysates were centrifuged at 16,000 g for 10 min at 4° C. and analyzed by SDS-PAGE and transferred to PVDF membranes. The membranes were blocked 5% non-fat dry milk (NFDM) in PBST (PBS+0.05% Tween-20) for 1 hour, then incubated overnight at 4° C. with primary antibody in 5% NFDM in PBST. The blots were washed with PBST and incubated with HRP-conjugated secondary antibodies diluted in 5% NFDM in PBST for 1 hour at room temperature. Membranes were washed with PBST and visualized with SuperSignal West Pico Chemiluminescent Substrate (Thermo Scientific). Semi-quantitative results were obtained by noting the lowest concentration at which both p62 degradation and LC3-I to LC3-II conversion were observed.
(SEQ ID NO: 16)-Sequence. […] The N-terminus was capped with an acetyl group while the C terminus was capped with a —C(O)—NH2 group. The activity reported is a summation of results from both the p62 degradation assay and the LC3 marker assay.

[1] = Table 3, control vehicle, first symbol of cell
[2] = Table 4, control inactive Tat-Beclin mutant, first symbol
[3] = Table 3, control vehicle, first symbol
[4] = Table 8, control compound T25, first symbol
[5] = Table 3, control vehicle, second symbol of cell
[6] = Table 4, control inactive Tat-Beclin mutant, second symbol
[7] = Table 3, control vehicle, second symbol
[8] = Table 8, control compound T25, second symbol
[9] = Table 4, starred rows (asterisk not explained)
[10] = Table 5, control compound T25, first symbol
[11] = Table 6, control DMSO, first symbol
[12] = Table 5, control compound T25, second symbol
[13] = Table 6, control DMSO, second symbol

| Sequence | Activity (μM) 10, p62/actin assay activity (p62; [1]) | Activity (μM) 10, p62/actin assay activity (p62; [2]) | Activity (μM) 20, p62/actin assay activity (p62; [3]) | Activity (μM) 30, p62/actin assay activity (p62; [2]) | Activity (μM) 30, p62/actin assay activity (p62; [4]) | Activity (μM) 50, p62/actin assay activity (p62; [3]) | Activity (μM) 50, p62/actin assay activity (p62; [2]) | Activity (μM) 50, p62/actin assay activity (p62; [4]) | Activity (μM) 100, p62/actin assay activity (p62; [3]) | Activity (μM) 100, p62/actin assay activity (p62; [2]) | Activity (μM) 100, p62/actin assay activity (p62; [4]) | Activity (μM) 10, starred cell, p62/actin assay activity (p62; first symbol) | Activity (μM) 10, LC3 assay activity (LC3; [5]) | Activity (μM) 10, LC3 assay activity (LC3; [6]) | Activity (μM) 20, LC3 assay activity (LC3; [7]) | Activity (μM) 30, LC3 assay activity (LC3; [6]) | Activity (μM) 30, LC3 assay activity (LC3; [8]) | Activity (μM) 50, LC3 assay activity (LC3; [7]) | Activity (μM) 50, LC3 assay activity (LC3; [6]) | Activity (μM) 50, LC3 assay activity (LC3; [8]) | also measured |
| --- | --- | --- | --- | --- | --- | --- | --- | --- | --- | --- | --- | --- | --- | --- | --- | --- | --- | --- | --- | --- | --- |
| VCNACFHIWH [Compound 3] | 0/0 | 0 | + | 0 | 0/0 | ++ | 0 | + and +++/+++ | +++/+++ | 0/0 | +++/+++ | 0/0* | 0/0 | ++ | +++ | +++ | 0/0 | +++ | + | 0 and +++/+++ | Activity (μM) 100, LC3 assay activity (LC3; [7]): +++/+++; Activity (μM) 100, LC3 assay activity (LC3; [6]): 0/0; Activity (μM) 100, LC3 assay activity (LC3; [8]): +++/+++; Activity (μM) 10, starred cell, LC3 assay activity (LC3; second symbol): 0/0*; Activity (μM) 10, single symbol (HeLa cells; [9]): 0; Activity (μM) 30, single symbol (HeLa cells; [9]): 0; Activity (μM) 50, single symbol (HeLa cells; [9]): 0; Activity (μM) 100, single symbol (HeLa cells; [9]): 0 |
| VCNATCHIWH [Compound 1] | 0/0 | 0/0 | 0/0 | 0 | 0/0 and ++ | 0/0 | 0 | 0/0 and +++/+++ | +++ | 0 | +++ | 0/0* and 0 | 0/0 | 0/0 | 0/0 | + | 0/0 and +++ | 0/0 | ++ | 0/0 and +++/+++ | Activity (μM) 100, LC3 assay activity (LC3; [7]): +; Activity (μM) 100, LC3 assay activity (LC3; [8]): +; Activity (μM) 10, starred cell, LC3 assay activity (LC3; second symbol): 0/0* and +; Activity (μM) 10, single symbol (HeLa cells; [9]): 0; Activity (μM) 30, single symbol (HeLa cells; [9]): 0; Activity (μM) 50, single symbol (HeLa cells; [9]): 0; Activity (μM) 100, single symbol (HeLa cells; [9]): 0 |
| VCNATCHIWH [Compound 15] | – | – | – | – | – | – | – | – | – | – | – | – | – | – | – | – | – | – | – | – | Activity (μM) 10, p62/actin assay activity (p62; [10]): 0/0; Activity (μM) 10, p62/actin assay activity (p62; [11]): ++/++; Activity (μM) 30, p62/actin assay activity (p62; [10]): +/+; Activity (μM) 30, p62/actin assay activity (p62; [11]): +++; Activity (μM) 50, p62/actin assay activity (p62; [10]): ++/++; Activity (μM) 50, p62/actin assay activity (p62; [11]): +++; Activity (μM) 100, p62/actin assay activity (p62; [10]): +++/+++; Activity (μM) 100, p62/actin assay activity (p62; [11]): +++; Activity (μM) 10, LC3 assay activity (LC3; [12]): 0/0; Activity (μM) 10, LC3 assay activity (LC3; [13]): ++/++; Activity (μM) 30, LC3 assay activity (LC3; [12]): +/+; Activity (μM) 30, LC3 assay activity (LC3; [13]): +; Activity (μM) 50, LC3 assay activity (LC3; [12]): ++/++; Activity (μM) 50, LC3 assay activity (LC3; [13]): +; Activity (μM) 100, LC3 assay activity (LC3; [12]): +++/+++; Activity (μM) 100, LC3 assay activity (LC3; [13]): +; Activity (μM) 10, single symbol (HeLa cells; Table 5): 0; Activity (μM) 30, single symbol (HeLa cells; Table 5): +; Activity (μM) 50, single symbol (HeLa cells; Table 5): +++; Activity (μM) 100, single symbol (HeLa cells; Table 5): +++ |
